The values that follow come from PMC9364363 (RSC Advances, 2022).

Converted amounts (≈) assume the structure as drawn. Read-outs that look alike come from different tables or passages of the source.

One series can be described thus: in vitro. Conditions: human.
Another series deals with Mtb H37Ra^lux. Description: microbe, parasite or virus in culture. Conditions: for IC50: read-out: Mtb H37Ra^lux IC50; for MIC: read-out: Mtb H37Ra^lux IC90 (MIC). It counts as cell-based, Mycobacterium tuberculosis.
The test system of a further series is M. abscessus. Description: microbe, parasite or virus in culture. It counts as cell-based, Mycobacterium abscessus. The settings on record: read-out: IC50 M. abscessus.
The next series concerns M. intracellulare. The series is described as follows: microbe, parasite or virus in culture. It counts as cell-based, Mycobacterium intracellulare. Conditions: read-out: IC50 M. intracellulare.
For the next series, the system named is M. avium subsp. avium. Description: microbe, parasite or virus in culture. It counts as cell-based, Mycobacterium avium subsp. avium. Conditions: read-out: IC50 M. avium subsp. avium.
The subject of series [1] is MRC-5 lung fibroblast cell line.
Another series has as its system M. smegmatis. It counts as cell-based, Mycobacterium smegmatis. Conditions: read-out: IC50 M. smegmatis; luminometry, 3 days.
[2] abbreviates: Mycobacterium tuberculosis, H37RA, 168 h.
[3] abbreviates: Mycobacteroides abscessus, 72 h.
Where [4] appears, read: Mycobacterium intracellulare, 168 h.

The term IC50 denotes the concentration that gives 50% inhibition. The molecule `Cc1nc2sccn2c1C(=O)N1CCN(CCn2cc(-c3ccc(C(C)(C)C)cc3)nn2)CC1` [IT02, (4-(2-(4-(4-(tert-Butyl)phenyl)-1H-1,2,3-triazol-1-yl)-ethyl)-piperazin-1-yl)(6-methylimidazo-[2,1-b]-thiazol-5-yl)-methanone] displayed a CC50 in “in vitro” of 46 µM. The IC50 with Mtb H37Ra^lux (setting [2]) is 5.2 µM; in the series with M. abscessus (setting [3]) it was above 128 µM; with M. intracellulare (setting [4]), 119 µM; with M. avium subsp. avium (Mycobacterium avium, 168 h), 126 µM. Moreover, the MIC in the series with Mtb H37Ra^lux (setting [2]) worked out at 12.8 µM (≈ 6.13 µg/mL). Besides, in series [1], the “T.I. CC50/IC50” value is 8.8.

For `CCCCCCCCCc1cn(CCN2CCN(C(=O)c3c(C)nc4sccn34)CC2)nn1` [IT03, (6-Methylimidazo-[2,1-b]-thiazol-5-yl)(4-(2-(4-nonyl-1H-1,2,3-triazol-1-yl)-ethyl)-piperazin-1-yl)-methanone], the CC50 in “in vitro” came out at 45.5 µM. Further, the IC50 in the series with Mtb H37Ra^lux (setting [2]) was 2.88 µM; in the series on M. abscessus (setting [3]), above 128 µM; in the series on M. intracellulare (setting [4]), 63.4 µM; with M. avium subsp. avium (Mycobacterium avium, 168 h) it was above 128 µM. In the series on Mtb H37Ra^lux (setting [2]), the MIC was determined as 10.2 µM (≈ 4.82 µg/mL). Further, the “T.I. CC50/IC50” value in series [1] worked out at 15.8.

For the molecule `Cc1nc2sccn2c1C(=O)N1CCN(CCn2cc(CSc3nc4ccccc4[nH]3)nn2)CC1` [IT04, (4-(2-(4-(((1H-Benzo-[d]-imidazole-2-yl)-thio)-methyl)-1H-1,2,3-triazol-1-yl)-ethyl)-piperazin-1-yl)(6-methylimidazo-[2,1-b]-thiazol-5-yl)-methanone], the CC50 in “in vitro” is above 128 µM. The half-maximal inhibitory concentration (IC50) with Mtb H37Ra^lux (setting [2]) was 3.94 µM; with M. abscessus (setting [3]) it was above 128 µM; in the series with M. intracellulare (setting [4]), above 128 µM; in the series on M. avium subsp. avium (Mycobacterium avium, 168 h) it was above 128 µM. Besides, the MIC in the series with Mtb H37Ra^lux (setting [2]) was 14.6 µM (≈ 7.41 µg/mL). Moreover, the “T.I. CC50/IC50” value in series [1] was found to be 32.5.

On to `Cc1nc2sc3ccccc3n2c1C(=O)N1CCN(Cc2cn(-c3cccc([N+](=O)[O-])c3)nn2)CC1` [IT08, (2-Methylbenzo-[d]-imidazo-[2,1-b]-thiazol-3-yl)(4-((1-(3-nitrophenyl)-1H-1,2,3-triazol-4-yl)-methyl)-piperazin-1-yl)-methanone], for which, in “in vitro”, the CC50 was above 128 µM. The IC50 with Mtb H37Ra^lux (setting [2]) was 2.96 µM; in the series on M. abscessus (setting [3]), above 128 µM; with M. intracellulare (setting [4]), above 128 µM; in the series on M. avium subsp. avium (Mycobacterium avium, 168 h), above 128 µM. In addition, the MIC with Mtb H37Ra^lux (setting [2]) came out at 11.8 µM (≈ 5.94 µg/mL). The “T.I. CC50/IC50” value in series [1] was determined as 43.2.

`Cc1ccc(-n2cc(CN3CCN(C(=O)c4c(C)nc5sc6ccccc6n45)CC3)nn2)cc1C` [IT09, (4-((1-(3,4-Dimethylphenyl)-1H-1,2,3-triazol-4-yl)-methyl)-piperazin-1-yl)(2-methylbenzo-[d]-imidazo-[2,1-b]-thiazol-3-yl)-methanone] gave a CC50 in the series “in vitro” above 128 µM. In addition, the IC50 in the series with Mtb H37Ra^lux (setting [2]) is 3.46 µM; in the series on M. abscessus (setting [3]) it was above 128 µM; in the series on M. intracellulare (setting [4]), above 128 µM; in the series with M. avium subsp. avium (Mycobacterium avium, 168 h), above 128 µM. The MIC in the series with Mtb H37Ra^lux (setting [2]) stood at 13.5 µM (≈ 6.55 µg/mL). Also, in series [1], the “T.I. CC50/IC50” value amounted to 37.0.

`Cc1nc2sc3ccccc3n2c1C(=O)N1CCN(Cc2cn(-c3ccc([N+](=O)[O-])cc3)nn2)CC1` [IT10, (2-Methylbenzo-[d]-imidazo-[2,1-b]-thiazol-3-yl)(4-((1-(4-nitrophenyl)-1H-1,2,3-triazol-4-yl)-methyl)-piperazin-1-yl)-methanone]: in “in vitro”, the CC50 is above 128 µM. Besides, the IC50 was 2.32 µM in the series on Mtb H37Ra^lux (setting [2]); above 128 µM with M. abscessus (setting [3]); above 128 µM in the series on M. intracellulare (setting [4]); above 128 µM in the series with M. avium subsp. avium (Mycobacterium avium, 168 h). In addition, the MIC in the series on Mtb H37Ra^lux (setting [2]) is 7.05 µM (≈ 3.54 µg/mL). Also, the “T.I. CC50/IC50” value in series [1] is listed as 55.2.

Turning to `Cc1nc2sc3ccccc3n2c1C(=O)N1CCN(Cc2cn(-c3cccc(Cl)c3)nn2)CC1` [IT11, (4-((1-(3-Chlorophenyl)-1H-1,2,3-triazol-4-yl)-methyl)-piperazin-1-yl)(2-methylbenzo-[d]-imidazo-[2,1-b]-thiazol-3-yl)-methanone], the CC50 in the series “in vitro” amounted to 29.4 µM. Besides, the IC50 in the series with Mtb H37Ra^lux (setting [2]) was 3.86 µM; with M. abscessus (setting [3]), above 128 µM; with M. intracellulare (setting [4]) it was 98.8 µM; in the series with M. avium subsp. avium (Mycobacterium avium, 168 h), 100 µM. Further, in the series on Mtb H37Ra^lux (setting [2]), the MIC came out at 14.5 µM (≈ 7.11 µg/mL). Further, in series [1], the “T.I. CC50/IC50” value turned out to be 7.6.

Take `Cc1nc2sc3ccccc3n2c1C(=O)N1CCN(CCn2cc(-c3ccc(C(C)(C)C)cc3)nn2)CC1` [IT13, (4-(2-(4-(4-(tert-Butyl)-phenyl)-1H-1,2,3-triazol-1-yl)-ethyl)-piperazin-1-yl)(2-methylbenzo-[d]-imidazo-[2,1-b]-thiazol-3-yl)-methanone]: the CC50 in “in vitro” turned out to be 43.7 µM. In addition, the IC50 with Mtb H37Ra^lux (setting [2]) was 3.19 µM; in the series with M. abscessus (setting [3]) it was above 128 µM; in the series with M. intracellulare (setting [4]) it was above 128 µM; with M. avium subsp. avium (Mycobacterium avium, 168 h), 17.1 µM. In addition, the MIC with Mtb H37Ra^lux (setting [2]) amounted to 7.24 µM (≈ 3.82 µg/mL). In addition, the “T.I. CC50/IC50” value in series [1] turned out to be 13.7.

Take “(4-(2-(4-((1H-Benzo-[d]-imidazole-2-yl)-thio)-1H-1,2,3-triazol-1-yl)-ethyl)-piperazin-1-yl)(2-methylbenzo-[d]-imidazo[2,1-b]-thiazol-3-yl)-methanone [IT16]”: the “Mtb H37Ra^lux IC90 (MIC)” value in the series with Mtb H37Ra^lux turned out to be 14.49 µM. Also, the IC50 in the series with Mtb H37Ra^lux was 7.09 µM; in the series with M. abscessus (luminometry, 3 days) it was above 128 µM; in the series with M. intracellulare (luminometry, 7 days), above 128 µM; in the series on M. smegmatis, 103 µM; with M. avium subsp. avium (luminometry, 7 days), 124 µM. Moreover, in series [1], the “T.I. CC50/IC50” value was determined as 8.2.
